Laboratory results: article PMC12582325 (Proceedings of the National Academy of Sciences of the …, 2025)
Values joined by “and” are separate entries in the source; they are usually repeats but may differ in a detail not shown here. Identical values can stand only once. “Also recorded” adds a separate entry of the source. Like-named read-outs stand apart in the source and are kept apart here. Where a SMILES comes first, the peptide text is derived from it.

Tests used:
[1] = test system: Fg.Ste2; format: cell-based, Fusarium graminearum; conditions: YPL1 library cocultured with Fg.Ste2 strain GEN87, 20 h, 2 d diploid enrichment, NextSeq 500
[2] = test system: Fo.Ste2; assay: YeMaP Library-on-One: YPL1 pheromone library enrichment by mating, NGS; format: cell-based, Fusarium oxysporum; conditions: YPL1 library cocultured with Fo.Ste2 strain GEN90, 20 h, 2 d diploid enrichment, NextSeq 500
[3] = test system: Bc.Ste2; format: cell-based, Botrytis cinerea
[4] = test system: no_GPCR (negative control lacking a GPCR); format: cell-based, Saccharomyces cerevisiae; conditions: SC + added peptide, individual replicates (n=3)
[5] = test system: Bb.Ste2; format: cell-based, Beauveria bassiana
[6] = test system: Bc.Ste2; format: cell-based, Botrytis cinerea; conditions: YPL1 library cocultured with Bc.Ste2 strain GEN89, 20 h, 2 d diploid enrichment, NextSeq 500
[7] = test system: Bc.Ste2; format: cell-based, Botrytis cinerea; conditions: for Bc.Ste2 (activation): with Bc agonist, normalised
[8] = test system: Bb.Ste2; format: cell-based, Beauveria bassiana; conditions: Bb + Cm (Bb 0.0005 μM, Cm 10 μM); Control mean 6960; mean of n = 4
[9] = test system: Fo.Ste2; format: cell-based, Fusarium oxysporum
[10] = test system: Bb.Ste2; format: cell-based, Beauveria bassiana; conditions: YPL1 library cocultured with Bb.Ste2 strain GEN88, 20 h, 2 d diploid enrichment, NextSeq 500
[11] = test system: Hj.Hpr2; format: cell-based, Hypocrea jecorina
[12] = test system: Fo.Ste2; assay: Yeast GPCR biosensor, cognate agonist together with candidate antagonist Cm; format: cell-based, Fusarium oxysporum; conditions: Fo + Cm (Fo 0.5 μM, Cm 10 μM); Control mean 6141; mean of n = 4
[13] = test system: Fg.Ste2
[14] = test system: Fg.Ste2; format: cell-based, Fusarium graminearum; conditions: Fg + Cm (Fg 0.5 μM, Cm 10 μM); Control mean 6548; mean of n = 4
[15] = test system: Bb.Ste2; format: cell-based, Beauveria bassiana; remark: listed apart in the source
[16] = test system: Fo.Ste2; format: cell-based, Fusarium oxysporum; remark: listed apart in the source
[17] = test system: Fg.Ste2; format: cell-based, Fusarium graminearum; conditions: 10 μM; Control mean 6548; mean of n = 4
[18] = test system: Bc.Ste2; format: cell-based, Botrytis cinerea; conditions: 10 μM

Compound: CC(C)C[C@H](NC(=O)[C@H](CS)NC(=O)[C@@H](N)Cc1c[nH]c2ccccc12)C(=O)N[C@@H](CCCNC(=N)N)C(=O)N1CCC[C@H]1C(=O)NCC(=O)N[C@@H](CCC(N)=O)C(=O)N1CCC[C@H]1C(=O)N[C@@H](CS)C(=O)N[C@@H](Cc1c[nH]c2ccccc12)C(=O)O [Cm] (H-WCLRPGQPCW-OH; N-terminus and C-terminus assumed)
- Enrichment after mating, reads per million minus library before coculture [1]: consistently lacking
- Enrichment after mating, reads per million minus library before coculture [2]: consistently lacking
- Reduction in diploid formation [3]: two-fold reduction
- barcode qPCR of diploids, no_GPCR x Fg.Pheromone ([4]; SC alone: 0, 0, 0): 0 and 0.032 and 0.007
- barcode qPCR of diploids, no_GPCR x Hj.Pheromone ([4]; SC alone: 0, 0, 0): 0 (2×) and 0.052
- barcode qPCR of diploids, no_GPCR x Bb.Pheromone ([4]; SC alone: 0, 0, 0.004): 0 (2×) and 0.005
- barcode qPCR of diploids, no_GPCR x Fo.Pheromone ([4]; SC alone: 0, 0, 0.007): 0.005 and 0 (2×)
- barcode qPCR of diploids, no_GPCR x no_Pheromone ([4]; SC alone: 0.001, 0.001, 0): 0.027 and 0.026 and 0.002
- Activation of Bb.Ste2 biosensor, in words [5]: triggered the activation
- Sup.Fig.3B Bb.Ste2 biosensor response, group mean ([5]; 10 μM): 1237500
- Enrichment after mating, reads per million minus library before coculture [6]: consistently lacking
- Effect on activation of Bc.Ste2 by Bc pheromone, in words ([7]; 0.0005 μM Bc pheromone in combination with 10 μM peptide, four biological replicates, Fig. 2G): completely abolished
- Sup.Fig.3B Bc.Ste2 biosensor response, group mean ([7]; Bc + Cm (Bc 0.0005 μM, Cm 10 μM), Control mean 6719, mean of n = 4): 9961
- Bc.Ste2 + pheromones, biosensor response, group mean ([7]; Bc + the named peptide, Bc alone mean 134.8, mean of n = 4): 1.794
- Hillslope ([7]; Bc.Ste2 + Cm (antagonist), four-parameter fit, best-fit value): -289008
- Excess of the antagonist compared to the agonist at IC50 ([7]; Bc.Ste2, 0.0005 μM Bc pheromone): 2,000 fold
- Bc.Ste2 (activation) ([7]; Concentration 1e-6, replicate 1): 49.9332
- Bc.Ste2 (activation) ([7]; Concentration 1e-6, replicate 2): 46.5053
- Bc.Ste2 (activation) ([7]; Concentration 1e-6, replicate 3): 51.6445
- Bc.Ste2 (activation) ([7]; Concentration 1e-6, replicate 4): 48.6418
- Bc.Ste2 (activation) ([7]; Concentration 5e-6, replicate 1): 5.491
- Bc.Ste2 (activation) ([7]; Concentration 5e-6, replicate 2): 4.729
- Bc.Ste2 (activation) ([7]; Concentration 5e-6, replicate 3): 4.1657
- Bc.Ste2 (activation) ([7]; Concentration 5e-6, replicate 4): 2.595
- Bc.Ste2 (activation) ([7]; Concentration 1e-5, replicate 1): 1.904
- Bc.Ste2 (activation) ([7]; Concentration 1e-5, replicate 2): 1.546
- Bc.Ste2 (activation) ([7]; Concentration 1e-5, replicate 3): 1.924
- Bc.Ste2 (activation) ([7]; Concentration 1e-5, replicate 4): 1.801
- Bc.Ste2 (activation) ([7]; Concentration 1.00E-07, replicate 1): 86.3218
- Bc.Ste2 (activation) ([7]; Concentration 1.00E-07, replicate 2): 95.1098
- Bc.Ste2 (activation) ([7]; Concentration 1.00E-07, replicate 3): 89.2984
- Bc.Ste2 (activation) ([7]; Concentration 1.00E-07, replicate 4): 97.6612
- Bc.Ste2 (activation) ([7]; Concentration 1.00E-08, replicate 1): 96.9525
- Bc.Ste2 (activation) ([7]; Concentration 1.00E-08, replicate 2): 96.5273
- Bc.Ste2 (activation) ([7]; Concentration 1.00E-08, replicate 3): 99.5039
- Bc.Ste2 (activation) ([7]; Concentration 1.00E-08, replicate 4): 98.7952
- Bc.Ste2 (activation) ([7]; Concentration 1.00E-09, replicate 1): 101.063
- Bc.Ste2 (activation) ([7]; Concentration 1.00E-09, replicate 2): 96.9525
- Bc.Ste2 (activation) ([7]; Concentration 1.00E-09, replicate 3): 99.9291
- Bc.Ste2 (activation) ([7]; Concentration 1.00E-09, replicate 4): 101.063
- Bc.Ste2 (activation) ([7]; Concentration 5.00E-07, replicate 1): 78.8094
- Bc.Ste2 (activation) ([7]; Concentration 5.00E-07, replicate 2): 64.2098
- Bc.Ste2 (activation) ([7]; Concentration 5.00E-07, replicate 3): 79.0928
- Bc.Ste2 (activation) ([7]; Concentration 5.00E-07, replicate 4): 82.7782
- Bc.Ste2 (activation) ([7]; Concentration 5.00E-08, replicate 1): 94.4011
- Bc.Ste2 (activation) ([7]; Concentration 5.00E-08, replicate 2): 98.7952
- Bc.Ste2 (activation) ([7]; Concentration 5.00E-08, replicate 3): 96.9525
- Bc.Ste2 (activation) ([7]; Concentration 5.00E-08, replicate 4): 98.7952
- Sup.Fig.3B Bb.Ste2 biosensor response, group mean [8]: 1335000
- Fold decline in diploids containing Fo.Ste2 [9]: 0.2 fold
- Mean 2 (SC + peptide), Fo share of diploids [9]: 0.087
- Mean Diff, SC vs. + peptide ([9]; n = 3): 0.4046
- Enrichment after mating, reads per million minus library before coculture [10]: +7,508 RPM
- Mean 2 (SC + peptide), Hj share of diploids [11]: 0.004151
- barcode qPCR of diploids, Hj.HPR2 x Bb.Pheromone [11]: 0
- barcode qPCR of diploids, Hj.HPR2 x Fg.Pheromone [11]: 0
- barcode qPCR of diploids, Hj.HPR2 x no_Pheromone [11]: 0
- Mean Diff, SC vs. + peptide ([11]; n = 3): -0.002114
- Sup.Fig.3B Fo.Ste2 biosensor response, group mean [12]: 1377500
- barcode qPCR of diploids, Fg.Ste2 x Hj.Pheromone ([13]; SC + added peptide, individual replicates (n=3), SC alone: 0.003, 0.004, 0.001): 0.028 and 0.017 and 0.029
- barcode qPCR of diploids, Fg.Ste2 x Fo.Pheromone ([13]; SC + added peptide, individual replicates (n=3), SC alone: 0.005, 0.005, 0.013): 0.014 and 0.066 and 0.033
- barcode qPCR of diploids, Fg.Ste2 x no_Pheromone ([13]; SC + added peptide, individual replicates (n=3), SC alone: 0.012, 0.001, 0.003): 0 and 0.143 and 0.133
- barcode qPCR of diploids, Fg.Ste2 x Bb.Pheromone ([13]; SC + added peptide, individual replicates (n=3), SC alone: 0.012, 0.009, 0.006): 0.032 and 0.042 and 0.028
- barcode qPCR of diploids, Fg.Ste2 x Fg.Pheromone ([13]; SC + added peptide, individual replicates (n=3), SC alone: 0.206, 0.237, 0.235): 0.441 and 0.282 and 0.373
- Fold increase in diploids containing Fg.Ste2 ([13]; consortium in SC media, 10 μM external peptide, three biological replicates): 2.2 fold
- Sup.Fig.3B Fg.Ste2 biosensor response, group mean [14]: 219822
- Mean 2 (SC + peptide), Bb share of diploids [15]: 0.01767
- barcode qPCR of diploids, Bb.Ste2 x Fo.Pheromone [15]: 0.04 and 0.041 and 0.037
- barcode qPCR of diploids, Bb.Ste2 x no_Pheromone [15]: 0.037 and 0.028 and 0.049
- Mean Diff, SC vs. + peptide ([15]; n = 3): 0.02891
- Activation of Fo.Ste2 biosensor, in words [16]: triggered the activation; also recorded: agonists for Fo.Ste2
- Hillslope [16]: 1.276
- logEC50 [16]: -6.973
- Sup.Fig.3B Fo.Ste2 biosensor response, group mean ([16]; 10 μM): 1362500
- Sup.Fig.3B Fg.Ste2 biosensor response, group mean [17]: 14826
- Sup.Fig.3B Bc.Ste2 biosensor response, group mean [18]: 6819
